Measured values from patent US12471596B2 (priority 2019, dated 2025).

Tests used:
[1] = test system: Phytophthora infestans; assay: microbe, parasite or virus in culture; type: cell-based; conditions: in Secale cereale, 168 h, read-out: control compared to the untreated check
[2] = test system: Phytophthora infestans; assay: whole plant or invertebrate; type: in vivo, Phytophthora infestans on tomato plants; conditions: in Solanum lycopersicum, 24 h, read-out: control compared to the untreated check
[3] = test system: Plasmopara viticola; assay: Example B: Plasmopara viticola test in grape (greenhouse, preventive); type: in vivo; conditions: 24 h, grape seedlings sprayed one day before inoculation, disease severity rating, read-out: control compared to the untreated check
Description: Example B: Plasmopara viticola Test in Grape
The compound were dissolved in 2% DMSO/Acetone & then mixed with water containing emulsifier to a calibrated spray volume of 50 mL. The spray solutions were poured into spray bottles for further applications.
To test the preventive activity of compounds, 5 week old healthy grape seedlings, cv. Thompson seedless, raised in the greenhouse, were sprayed with the active compound preparation at the stated application rates inside spray cabinets using hallow cone nozzles. One day after treatment, the plants were inoculated with an inoculum suspension (sterile water) containing 6×10^4 Plasmopara viticola inoculum. The inoculated plants were then kept in a greenhouse chamber at 18-21° C. temperature and 95-100% relative humidity for disease expression.
A visual assessment of the performance of the compound was carried out by rating the disease severity (0-100% scale) on treated plants 3, 7 and 10 days after application. Efficacy (% control) of the compound was calculated by comparing the disease rating in the treatment with the one of the untreated control. The compounds were also assessed for their plant compatibility by recording symptoms like necrosis, chlorosis & stunting

COc1cncc(OCC(=O)N2CCC(c3nc(C4=NOC(c5c(F)cccc5Br)C4)cs3)CC2)n1 (stereo not drawn) [Compound 120, 1-(4-(4-(5-(2-bromo-6-fluorophenyl)-4,5-dihydroisoxazol-3-yl)thiazol-2-yl)piperidin-1-yl)-2-((6-methoxypyrazin-2-yl)oxy)ethan-1-one]
≥ 70%: inhibition of growth at 30 ppm [1] | pest or weed control at 50 ppm [2] | pest or weed control at 50 ppm [3]

CS(=O)(=O)Oc1cccc(Cl)c1C1CC(c2csc(C3CCN(C(=O)COc4nccc(C#N)n4)CC3)n2)=NO1 (stereo not drawn) [Compound 113, 3-chloro-2-(3-(2-(1-(2-((4-cyanopyrimidin-2-yl)oxy)acetyl)piperidin-4-yl)thiazol-4-yl)-4,5-dihydroisoxazol-5-yl)phenyl methanesulfonate]
≥ 70%: inhibition of growth at 30 ppm [1] | pest or weed control at 50 ppm [2] | pest or weed control at 50 ppm [3]

O=C(COc1nccnc1C(F)(F)F)N1CCC(c2nc(C3=NOC(c4c(Cl)cccc4Cl)C3)cs2)CC1 (stereo not drawn) [Compound 3, 1-(4-(4-(5-(2,6-dichlorophenyl)-4,5-dihydroisoxazol-3-yl)thiazol-2-yl)piperidin-1-yl)-2-((3-(trifluoromethyl)pyrazin-2-yl)oxy)ethan-1-one]
≥ 70%: inhibition of growth at 30 ppm [1] | pest or weed control at 50 ppm [2] | pest or weed control at 50 ppm [3]

N#Cc1ccnc(OCC(=O)N2CCC(c3nc(C4=NOC(c5c(Cl)cccc5C(F)(F)F)C4)cs3)CC2)n1 (stereo not drawn) [Compound 114, 2-(2-(4-(4-(5-(2-chloro-6-(trifluoromethyl)phenyl)-4,5-dihydroisoxazol-3-yl)thiazol-2-yl)piperidin-1-yl)-2-oxoethoxy)pyrimidine-4-carbonitrile]
≥ 70%: inhibition of growth at 30 ppm [1] | pest or weed control at 50 ppm [2] | pest or weed control at 50 ppm [3]

O=C(COc1nccnc1Cl)N1CCC(c2nc(C3=NOC(c4c(F)cccc4Br)C3)cs2)CC1 (stereo not drawn) [Compound 121, 1-(4-(4-(5-(2-bromo-6-fluorophenyl)-4,5-dihydroisoxazol-3-yl)thiazol-2-yl)piperidin-1-yl)-2-((3-chloropyrazin-2-yl)oxy)ethan-1-one]
≥ 70%: inhibition of growth at 30 ppm [1] | pest or weed control at 50 ppm [2] | pest or weed control at 50 ppm [3]

O=C(COc1nccnc1Cl)N1CCC(c2nc(C3=NOC(c4c(Cl)cccc4Cl)C3)cs2)CC1 (stereo not drawn) [Compound 124, 2-((3-chloropyrazin-2-yl)oxy)-1-(4-(4-(5-(2,6-dichlorophenyl)-4,5-dihydroisoxazol-3-yl)thiazol-2-yl)piperidin-1-yl)ethan-1-one]
≥ 70%: inhibition of growth at 30 ppm [1] | pest or weed control at 50 ppm [2] | pest or weed control at 50 ppm [3]

O=C(COc1nccnc1C(F)(F)F)N1CCC(c2nc(C3=NOC(c4c(F)cccc4Cl)C3)cs2)CC1 (stereo not drawn) [Compound 1, 1-(4-(4-(5-(2-chloro-6-fluorophenyl)-4,5-dihydroisoxazol-3-yl)thiazol-2-yl)piperidin-1-yl)-2-((3-(trifluoromethyl)pyrazin-2-yl)oxy)ethan-1-one]
≥ 70%: inhibition of growth at 30 ppm [1] | pest or weed control at 50 ppm [2] | pest or weed control at 50 ppm [3]

N#Cc1ccnc(OCC(=O)N2CCC(c3nc(C4=NOC(c5c(F)cccc5Cl)C4)cs3)CC2)n1 (stereo not drawn) [Compound 118, 2-(2-(4-(4-(5-(2-chloro-6-fluorophenyl)-4,5-dihydroisoxazol-3-yl)thiazol-2-yl)piperidin-1-yl)-2-oxoethoxy)pyrimidine-4-carbonitrile]
≥ 70%: inhibition of growth at 30 ppm [1] | pest or weed control at 50 ppm [2] | pest or weed control at 50 ppm [3]
